What was measured:
[1] = molecular target: Human immunodeficiency virus type 1 integrase (Human immunodeficiency virus 1) (UniProt Q7ZJM1); assay: Inhibitory activity against strand transfer by HIV-1 Integrase at 100 uM
[2] = molecular target: Human immunodeficiency virus type 1 integrase (Human immunodeficiency virus 1) (UniProt Q7ZJM1); assay: Inhibitory activity against 3'-processing by HIV-1 Integrase at 100 uM
[3] = molecular target: T1, Human immunodeficiency virus type 1 integrase (Human immunodeficiency virus 1, UniProt Q7ZJM1); assay: Inhibitory concentration against 3'-processing by HIV -1 Integrase
[4] = molecular target: T1, Human immunodeficiency virus type 1 integrase; assay: Inhibitory concentration against Strand transfer by HIV -1 Integrase

Sequence of Human immunodeficiency virus type 1 integrase (Human immunodeficiency virus 1) (Q7ZJM1 as listed by the source): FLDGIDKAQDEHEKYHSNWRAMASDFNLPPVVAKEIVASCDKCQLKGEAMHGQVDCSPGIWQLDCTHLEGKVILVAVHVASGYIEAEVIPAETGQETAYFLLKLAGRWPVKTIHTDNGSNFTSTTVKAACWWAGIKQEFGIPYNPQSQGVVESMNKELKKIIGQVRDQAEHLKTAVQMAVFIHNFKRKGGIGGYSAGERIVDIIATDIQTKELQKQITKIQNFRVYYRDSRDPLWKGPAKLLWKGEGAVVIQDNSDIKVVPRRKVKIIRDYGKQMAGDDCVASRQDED
T1 sequence (Q7ZJM1 whole entry): as the sequence (Q7ZJM1 as listed by the source) above

Row | SMILES | inhibition [1] [%] | inhibition [2] [%] | IC50 [3] [µM] | IC50 [4] [µM]
1 | COc1cc(C[C@H]2COC(=O)[C@@H]2Cc2ccc(O)c(OC)c2)ccc1O | < 5 | < 5 | – | –
2 | COc1cc(C[C@H]2COC[C@@H]2Cc2ccc(OC)c(OC)c2)ccc1O | < 5 | < 5 | – | –
3 | COc1ccc(C[C@H]2COC(=O)[C@@H]2Cc2ccc(O)c(O)c2)cc1OC | 52 | 37 | – | –
4 | COc1ccc(C[C@H]2COC(=O)[C@@H]2Cc2cc(O)c(O)c(O)c2)cc1OC | < 5 | < 5 | – | –
5 | COc1ccc(C[C@@H](CO)[C@@H](Cc2ccc(O)c(O)c2)C(=O)NCc2ccccc2)cc1OC | < 5 | < 5 | – | –
6 | O=C1OC[C@H](Cc2ccc3c(c2)OCO3)[C@H]1Cc1cccc(O)c1 | < 5 | < 5 | – | –
7 | COc1cc([C@@H]2c3cc4c(cc3[C@H](O)[C@H]3COC(=O)[C@@H]23)OCO4)cc(OC)c1O | < 5 | < 5 | – | –
8 | COc1cc(C[C@@H](CO)[C@H](CO)Cc2ccc(OC)c(OC)c2)ccc1O | < 5 | < 5 | – | –
9 | COc1ccc(C[C@H]2CCC(=O)[C@@H]2Cc2ccc(O)c(O)c2)cc1OC | < 5 | < 5 | – | –
10 | COc1cc(C[C@H]2C(=O)OC[C@@H]2Cc2ccc(O)c(O)c2)ccc1O | 41 | < 5 | – | –
11 | COc1cc(C[C@H]2C(=O)OC[C@@H]2Cc2ccc(OC)c(OC)c2)ccc1O | < 5 | < 5 | – | –
12 | O=C1OC[C@H](Cc2ccc3c(c2)OCO3)[C@H]1Cc1ccccc1 | < 5 | < 5 | – | –
13 | O=C1OC[C@H](Cc2ccc(O)c(O)c2)[C@H]1Cc1ccc(O)c(O)c1 | 100 | 92 | 21.4 | 5.4
14 | COc1cc(C[C@@H](CO)[C@H](CO)Cc2ccc(O)c(OC)c2)ccc1O | < 5 | < 5 | – | –
15 | COc1cc([C@@H]2c3cc4c(c(O)c3C[C@H]3COC(=O)[C@H]32)OCO4)cc(OC)c1O | < 5 | < 5 | – | –
16 | COc1ccc(C[C@H]2COC[C@@H]2Cc2ccc(O)c(O)c2)cc1OC | < 5 | < 5 | – | –
17 | COc1ccc(C[C@H]2COC(=O)[C@@H]2Cc2cccc(O)c2)cc1OC | < 5 | < 5 | – | –
18 | COc1cc([C@@H]2c3cc4c(c(O)c3C[C@H]3COC(=O)[C@H]32)OCO4)cc(OC)c1OC | < 5 | < 5 | – | –
19 | COc1ccc(C[C@H]2COC(=O)[C@@H]2Cc2ccc(O)cc2)cc1OC | < 5 | < 5 | – | –
20 | COc1cc(C[C@H]2COC[C@@H]2Cc2ccc(O)c(OC)c2)ccc1O | < 5 | < 5 | – | –
21 | COc1ccc(C[C@@H](CO)[C@H](CO)Cc2ccc(O)c(O)c2)cc1OC | < 5 | < 5 | – | –
22 | COc1cc(C[C@H]2C(=O)CC[C@@H]2Cc2ccc(OC)c(OC)c2)ccc1O | < 5 | < 5 | – | –
23 | COc1cc([C@@H]2c3cc4c(c(O)c3C[C@H]3COC(=O)[C@@H]32)OCO4)cc(OC)c1OC | < 5 | < 5 | – | –
24 | COc1cc([C@@H]2c3cc4c(cc3C(O)[C@H]3COC(=O)[C@H]23)OCO4)cc(O)c1O (stereo not given in full) | < 5 | < 5 | – | –
25 | COc1cc([C@@H]2c3cc4c(cc3[C@H](O)[C@H]3COC(=O)[C@H]23)OCO4)cc(OC)c1O | < 5 | < 5 | – | –
26 | COc1ccc(C[C@H]2COC(=O)[C@@H]2Cc2ccccc2)cc1OC | < 5 | < 5 | – | –
27 | O=C1OC[C@H](Cc2ccc3c(c2)OCO3)[C@H]1Cc1ccc(O)cc1 | < 5 | < 5 | – | –
28 | COc1cc(C[C@@H](C(=O)NCc2ccccc2)[C@H](CO)Cc2ccc(OC)c(OC)c2)ccc1O | < 5 | < 5 | – | –
29 | COc1cc([C@@H]2c3cc4c(c(O)c3C[C@H]3COC(=O)[C@@H]32)OCO4)cc(OC)c1O | < 5 | < 5 | – | –

— ChEMBL document CHEMBL1129070, “(-)-Arctigenin as a lead structure for inhibitors of human immunodeficiency virus type-1 integrase” (J Med Chem, 1996)
